Tests used:
Assay in all cases: Eurofins kinase selectivity profile against 380 other human recombinant kinases (Table S2)
Format in all cases: biochemical
[1] = target: T1, 380 human recombinant protein kinases (Homo sapiens, UniProt Q15139); settings: PKCμ(h), read-out: Inhibition rate
T1 construct: purchased Eurofins (Celle Lévescault)
T1 sequence (Q15139 1-912): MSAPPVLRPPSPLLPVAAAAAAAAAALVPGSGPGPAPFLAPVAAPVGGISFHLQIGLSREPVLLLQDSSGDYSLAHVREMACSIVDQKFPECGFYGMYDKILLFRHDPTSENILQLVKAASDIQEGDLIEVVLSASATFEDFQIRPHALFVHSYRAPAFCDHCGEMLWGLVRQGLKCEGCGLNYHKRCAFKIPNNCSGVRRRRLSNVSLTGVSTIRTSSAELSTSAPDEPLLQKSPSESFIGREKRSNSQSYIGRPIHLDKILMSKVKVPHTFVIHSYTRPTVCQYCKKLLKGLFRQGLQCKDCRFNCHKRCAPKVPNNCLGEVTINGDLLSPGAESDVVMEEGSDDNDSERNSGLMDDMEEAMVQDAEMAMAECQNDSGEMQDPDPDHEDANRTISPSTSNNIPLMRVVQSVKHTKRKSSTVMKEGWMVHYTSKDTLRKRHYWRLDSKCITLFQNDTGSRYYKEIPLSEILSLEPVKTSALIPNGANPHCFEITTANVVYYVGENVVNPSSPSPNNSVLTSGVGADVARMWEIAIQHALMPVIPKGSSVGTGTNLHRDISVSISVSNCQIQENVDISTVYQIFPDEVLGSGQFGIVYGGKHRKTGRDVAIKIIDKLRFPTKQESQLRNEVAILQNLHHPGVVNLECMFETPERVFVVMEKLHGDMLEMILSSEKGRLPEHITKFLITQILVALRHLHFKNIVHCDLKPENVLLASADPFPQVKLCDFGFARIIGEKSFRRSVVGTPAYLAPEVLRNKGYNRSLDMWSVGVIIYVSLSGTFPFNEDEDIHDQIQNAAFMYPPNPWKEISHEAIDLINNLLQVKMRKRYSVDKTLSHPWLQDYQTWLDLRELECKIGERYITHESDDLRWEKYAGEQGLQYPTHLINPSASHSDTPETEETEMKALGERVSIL
In short: (§1)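 Profiling against 380 human recombinant kinases carried out by Eurofins at various compound concentrations.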

[2] = target: T2, 380 human recombinant protein kinases (Homo sapiens, UniProt P43405); settings: Syk(h), read-out: Inhibition rate (%)
T2 construct: purchased Eurofins (Celle Lévescault)
In short: as §1

[3] = target: T3, 380 human recombinant protein kinases (Homo sapiens, UniProt P10721); settings: cKit(h), read-out: Inhibition rate
T3 construct: purchased Eurofins (Celle Lévescault)
T3 sequence (P10721 26-976): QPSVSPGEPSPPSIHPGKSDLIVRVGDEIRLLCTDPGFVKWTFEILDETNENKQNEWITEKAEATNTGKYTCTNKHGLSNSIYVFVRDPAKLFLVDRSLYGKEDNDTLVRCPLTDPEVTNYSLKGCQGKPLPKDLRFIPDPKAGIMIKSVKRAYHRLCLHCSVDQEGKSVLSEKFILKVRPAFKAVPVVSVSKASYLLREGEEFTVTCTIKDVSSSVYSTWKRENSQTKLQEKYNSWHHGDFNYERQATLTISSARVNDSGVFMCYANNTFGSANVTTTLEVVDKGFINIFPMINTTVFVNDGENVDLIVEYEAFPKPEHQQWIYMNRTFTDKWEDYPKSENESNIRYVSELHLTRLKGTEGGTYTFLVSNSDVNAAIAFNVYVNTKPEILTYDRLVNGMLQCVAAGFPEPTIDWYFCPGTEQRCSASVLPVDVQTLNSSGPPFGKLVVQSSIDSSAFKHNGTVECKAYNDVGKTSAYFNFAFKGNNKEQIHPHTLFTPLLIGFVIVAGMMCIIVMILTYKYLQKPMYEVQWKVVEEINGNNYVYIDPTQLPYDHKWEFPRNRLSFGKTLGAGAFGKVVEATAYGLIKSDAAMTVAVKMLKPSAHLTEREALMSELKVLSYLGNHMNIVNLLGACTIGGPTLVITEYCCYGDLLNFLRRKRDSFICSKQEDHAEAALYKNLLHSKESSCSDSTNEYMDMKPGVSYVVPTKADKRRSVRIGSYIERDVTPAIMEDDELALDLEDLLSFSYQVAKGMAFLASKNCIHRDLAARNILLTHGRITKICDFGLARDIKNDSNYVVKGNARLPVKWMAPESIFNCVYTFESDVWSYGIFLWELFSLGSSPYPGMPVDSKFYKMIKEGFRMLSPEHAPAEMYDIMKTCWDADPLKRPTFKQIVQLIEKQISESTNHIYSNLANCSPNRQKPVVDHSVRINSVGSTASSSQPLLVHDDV
In short: as §1

[4] = target: T4, 380 human recombinant protein kinases (Homo sapiens, UniProt O15530); settings: PDK1(h), read-out: Inhibition rate
T4 construct: purchased Eurofins (Celle Lévescault)
T4 sequence (O15530 1-556): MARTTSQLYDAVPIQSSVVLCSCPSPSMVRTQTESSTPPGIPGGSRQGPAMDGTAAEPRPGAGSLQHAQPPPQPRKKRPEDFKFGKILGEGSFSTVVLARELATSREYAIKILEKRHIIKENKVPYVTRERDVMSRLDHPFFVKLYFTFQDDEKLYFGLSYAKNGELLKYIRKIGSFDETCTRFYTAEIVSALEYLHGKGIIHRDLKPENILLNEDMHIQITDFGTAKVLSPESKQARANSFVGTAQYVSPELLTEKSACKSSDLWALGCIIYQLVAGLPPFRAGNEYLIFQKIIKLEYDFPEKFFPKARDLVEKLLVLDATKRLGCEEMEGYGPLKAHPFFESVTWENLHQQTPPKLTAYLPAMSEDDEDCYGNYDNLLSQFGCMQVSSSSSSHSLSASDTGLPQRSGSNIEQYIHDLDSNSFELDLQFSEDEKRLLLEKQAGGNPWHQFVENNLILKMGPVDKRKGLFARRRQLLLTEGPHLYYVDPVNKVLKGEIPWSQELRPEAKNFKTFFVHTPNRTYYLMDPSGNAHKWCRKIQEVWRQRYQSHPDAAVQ
In short: as §1

[5] = target: T5, 380 human recombinant protein kinases (Homo sapiens, UniProt O96017); settings: CHK2(h), read-out: Inhibition rate
T5 construct: purchased Eurofins (Celle Lévescault)
T5 sequence (O96017 whole entry): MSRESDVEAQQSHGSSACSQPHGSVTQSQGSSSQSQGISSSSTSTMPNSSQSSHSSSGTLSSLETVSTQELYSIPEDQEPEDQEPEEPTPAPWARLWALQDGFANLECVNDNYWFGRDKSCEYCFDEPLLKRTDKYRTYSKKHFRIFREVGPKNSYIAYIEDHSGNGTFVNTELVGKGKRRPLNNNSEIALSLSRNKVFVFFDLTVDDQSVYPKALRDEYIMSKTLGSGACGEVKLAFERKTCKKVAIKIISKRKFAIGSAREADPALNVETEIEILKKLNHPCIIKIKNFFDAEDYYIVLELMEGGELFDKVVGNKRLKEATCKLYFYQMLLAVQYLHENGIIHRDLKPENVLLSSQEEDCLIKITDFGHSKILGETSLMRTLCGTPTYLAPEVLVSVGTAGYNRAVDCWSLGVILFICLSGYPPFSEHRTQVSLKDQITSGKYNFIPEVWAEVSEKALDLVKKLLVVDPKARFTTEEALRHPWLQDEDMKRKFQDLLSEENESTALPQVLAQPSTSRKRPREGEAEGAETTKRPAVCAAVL
In short: as §1

[6] = target: T6, 380 human recombinant protein kinases (Homo sapiens, UniProt Q9P2K8); settings: GCN2(h), read-out: Inhibition rate
T6 construct: purchased Eurofins (Celle Lévescault)
T6 sequence (Q9P2K8 whole entry): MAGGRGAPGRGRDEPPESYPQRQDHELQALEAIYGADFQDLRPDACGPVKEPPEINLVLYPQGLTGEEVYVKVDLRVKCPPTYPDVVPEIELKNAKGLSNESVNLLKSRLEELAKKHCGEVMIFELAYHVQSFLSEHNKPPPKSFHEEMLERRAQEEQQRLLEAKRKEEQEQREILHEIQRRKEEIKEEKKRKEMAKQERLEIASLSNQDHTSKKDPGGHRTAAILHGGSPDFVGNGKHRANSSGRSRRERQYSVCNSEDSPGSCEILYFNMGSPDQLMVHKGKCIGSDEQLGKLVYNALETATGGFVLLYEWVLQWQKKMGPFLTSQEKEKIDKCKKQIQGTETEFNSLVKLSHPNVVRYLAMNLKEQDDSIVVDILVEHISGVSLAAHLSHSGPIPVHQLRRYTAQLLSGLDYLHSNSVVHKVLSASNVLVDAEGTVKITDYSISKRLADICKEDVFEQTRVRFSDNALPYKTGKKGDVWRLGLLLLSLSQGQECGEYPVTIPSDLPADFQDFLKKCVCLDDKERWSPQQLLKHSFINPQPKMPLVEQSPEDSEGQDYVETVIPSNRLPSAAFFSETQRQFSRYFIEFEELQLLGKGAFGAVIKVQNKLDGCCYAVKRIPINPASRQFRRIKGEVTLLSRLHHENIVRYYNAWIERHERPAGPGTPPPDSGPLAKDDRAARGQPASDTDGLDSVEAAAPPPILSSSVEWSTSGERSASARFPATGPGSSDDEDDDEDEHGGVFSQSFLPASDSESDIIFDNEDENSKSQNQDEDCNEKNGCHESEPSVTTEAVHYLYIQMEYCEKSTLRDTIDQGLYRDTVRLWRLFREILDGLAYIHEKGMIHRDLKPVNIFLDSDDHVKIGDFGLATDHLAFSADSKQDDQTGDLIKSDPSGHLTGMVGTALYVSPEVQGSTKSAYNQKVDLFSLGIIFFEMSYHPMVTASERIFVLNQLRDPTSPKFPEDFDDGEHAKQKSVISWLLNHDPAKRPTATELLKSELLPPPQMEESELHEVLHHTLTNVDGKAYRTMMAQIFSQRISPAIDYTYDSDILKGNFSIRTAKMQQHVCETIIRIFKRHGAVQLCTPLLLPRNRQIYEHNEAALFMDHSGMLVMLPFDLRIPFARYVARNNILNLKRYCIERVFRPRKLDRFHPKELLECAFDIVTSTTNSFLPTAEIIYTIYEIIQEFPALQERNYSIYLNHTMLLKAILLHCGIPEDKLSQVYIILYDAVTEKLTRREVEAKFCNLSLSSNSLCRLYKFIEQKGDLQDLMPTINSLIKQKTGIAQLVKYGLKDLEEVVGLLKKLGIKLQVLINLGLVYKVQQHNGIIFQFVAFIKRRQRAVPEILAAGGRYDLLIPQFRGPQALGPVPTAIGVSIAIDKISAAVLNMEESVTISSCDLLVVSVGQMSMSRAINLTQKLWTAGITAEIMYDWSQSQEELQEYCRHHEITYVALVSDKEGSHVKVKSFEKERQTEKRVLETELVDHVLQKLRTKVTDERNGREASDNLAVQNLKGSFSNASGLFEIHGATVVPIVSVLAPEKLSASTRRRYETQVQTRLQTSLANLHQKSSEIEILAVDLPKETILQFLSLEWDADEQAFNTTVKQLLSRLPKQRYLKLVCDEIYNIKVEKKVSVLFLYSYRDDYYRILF
In short: as §1

[7] = target: T7, 380 human recombinant protein kinases (Homo sapiens, UniProt P21802); settings: FGFR2(h), read-out: Inhibition rate
T7 construct: purchased Eurofins (Celle Lévescault)
T7 sequence (P21802 22-821): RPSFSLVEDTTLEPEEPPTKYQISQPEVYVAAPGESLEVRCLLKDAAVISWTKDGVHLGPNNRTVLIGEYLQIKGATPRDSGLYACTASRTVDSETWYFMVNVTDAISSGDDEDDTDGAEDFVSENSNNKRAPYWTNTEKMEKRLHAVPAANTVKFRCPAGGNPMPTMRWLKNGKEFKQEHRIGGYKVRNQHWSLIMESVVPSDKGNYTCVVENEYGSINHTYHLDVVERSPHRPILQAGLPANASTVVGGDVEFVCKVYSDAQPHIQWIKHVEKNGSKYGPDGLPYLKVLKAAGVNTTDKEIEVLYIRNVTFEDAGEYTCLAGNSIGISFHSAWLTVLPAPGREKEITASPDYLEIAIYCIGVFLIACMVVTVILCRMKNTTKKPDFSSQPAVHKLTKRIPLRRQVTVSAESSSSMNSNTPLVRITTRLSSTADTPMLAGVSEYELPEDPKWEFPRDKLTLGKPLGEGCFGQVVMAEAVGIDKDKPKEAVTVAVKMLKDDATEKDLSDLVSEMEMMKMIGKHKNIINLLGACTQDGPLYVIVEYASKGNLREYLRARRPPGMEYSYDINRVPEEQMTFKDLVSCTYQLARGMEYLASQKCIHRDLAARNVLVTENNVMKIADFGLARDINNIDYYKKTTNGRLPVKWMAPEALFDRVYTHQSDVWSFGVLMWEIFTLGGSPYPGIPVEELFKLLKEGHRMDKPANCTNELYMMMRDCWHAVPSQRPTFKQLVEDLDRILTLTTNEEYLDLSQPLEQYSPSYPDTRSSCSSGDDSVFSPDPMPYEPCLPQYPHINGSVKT
In short: as §1

[8] = target: T8, 380 human recombinant protein kinases (Homo sapiens, UniProt P52564); settings: MKK6(h), read-out: Inhibition rate
T8 construct: purchased Eurofins (Celle Lévescault)
T8 sequence (P52564 1-334): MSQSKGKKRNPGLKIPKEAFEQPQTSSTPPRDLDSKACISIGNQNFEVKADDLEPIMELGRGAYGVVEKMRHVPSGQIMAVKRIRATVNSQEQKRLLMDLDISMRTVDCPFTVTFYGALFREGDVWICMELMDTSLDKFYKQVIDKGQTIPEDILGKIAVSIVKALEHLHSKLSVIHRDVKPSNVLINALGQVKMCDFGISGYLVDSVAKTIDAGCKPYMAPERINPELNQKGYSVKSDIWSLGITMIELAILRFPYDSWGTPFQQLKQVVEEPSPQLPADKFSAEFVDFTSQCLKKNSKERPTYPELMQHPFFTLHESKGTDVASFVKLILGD
In short: as §1

What does the source list for `C=CC(=O)Nc1cc(-c2cc(-c3cc4c([nH]3)CCNC4=O)ccn2)ccc1OC(F)(F)F` [compound 11]?
inhibition at 0.01 µM ([1]; 10 nM): -6%; inhibition at 0.1 µM ([1]; 100 nM): 13%; inhibition at 1 µM ([1]; 1000 nM): 45%; inhibition at 0.01 µM ([2]; 10 nM): 5%; inhibition at 0.1 µM ([2]; 100 nM): -15%; inhibition at 1 µM ([2]; 1000 nM): -9%; inhibition at 0.01 µM ([3]; 10 nM): 1%; inhibition at 0.1 µM ([3]; 100 nM): -14%; inhibition at 1 µM ([3]; 1000 nM): 9%; inhibition at 0.01 µM ([4]; 10 nM): -9%; inhibition at 0.1 µM ([4]; 100 nM): -2%; inhibition at 1 µM ([4]; 1000 nM): 3%; inhibition at 0.01 µM ([5]; 10 nM): 3%; inhibition at 0.1 µM ([5]; 100 nM): 16%; inhibition at 1 µM ([5]; 1000 nM): 55%; inhibition at 0.01 µM ([6]; 10 nM): 7%; inhibition at 0.1 µM ([6]; 100 nM): 9%; inhibition at 1 µM ([6]; 1000 nM): 5%; inhibition at 0.01 µM ([7]; 10 nM): -22%; inhibition at 0.1 µM ([7]; 100 nM): -12%; inhibition at 1 µM ([7]; 1000 nM): -2%; inhibition at 0.01 µM ([8]; 10 nM): -4%; inhibition at 0.1 µM ([8]; 100 nM): -9%; inhibition at 1 µM ([8]; 1000 nM): -15%
